Laboratory results taken from patent US20100113504A1, “AMIDE COMPOUNDS AND THEIR USE AS ANTITUMOR AGENTS” (SIGMA-TAU INDUSTRIE FARMACEUTICHE RIUNITE S.P.A., priority 2007, published 2010).
Counter-ions that a name gives are not always drawn. Like-named read-outs stand apart in the source and are kept apart here.

Experiments:
Format in all cases: cell-based
[1] = tested on: NB4 human promyelocitic leukaemia; test: Cytotoxicity (sulphorodamine B) on NB4 tumor cells; details: then 48 h in drug-free medium, read-out: IC50 ± SD, NB4
Method: To test the effects of the compounds on cell growth, NB4 human promyelocitic leukaemia, NCI-H460 non-small cell carcinoma cells and HCT-116 human colon carcinoma cells were used. NB4 and NCI-H460 tumor cells were grown RPMI 1640 containing 10% fetal bovine serum (GIBCO), whereas HCT-116 tumor cells were grown in McCoy's 5A containing 10% fetal bovine serum (GIBCO).
(§1) Tumor cells were seeded in 96-well tissue culture plates at approximately 10% confluence and were allowed to attach and recover for at least 24 h. […] The plates were incubated for 24 h at 37° C. At the end of the treatment, for NB4 tumor cells in suspension, the procedure was performed as follows: medium culture was removed by centrifugation of the plates at 1600×g for 10 min and the surnatant was removed. 250 μl PBS were added, then the plates were centrifuged at 1600×g for 10 min, the surnatant was removed. 200 μl/well of medium culture RPMI 1640 containing 10% FCS were added and the plates were incubated at 37° C. for other 48 h. The plates were centrifuged again at 1600×g for 10 min, the medium culture was removed and 200 μl PBS and 50 μl of cold 80% TCA were added. The plates were incubated on ice for at least 1 h. TCA was removed, the plates were washed 3 times for immersion in distilled-water and dried before on paper, then in a thermostater at 40° C. Subsequently 200 μl of 0.4% sulphorodamine B in 1% acetic acid were added. The plates were incubated at room temperature for other 30 min. Sulphorodamine B was removed, the plates were washed for immersion in 1% acetic acid for 3 times, then they were washed and dried on paper. 200 μl Tris 10 mM were added, the plates were kept under stirring for 20 min. The survival cell was determined as optical density by a Multiskan spectrofluorimeter at 540 nm. For the tumor cells in adhesion (NCI-H460 and HCT-116), the procedure was as above mentioned, except that the at the end of the treatment, the plates were washed by remotion of the surnatant and addition of PBS 3 times and not by centrifugation. Also the last day of the assay, the surnatant was removed without centrifugation.
(§2) The amount of cells killed was calculated as the percentage decrease in sulphorodamine B binding compared with control cultures.

[2] = tested on: HCT-116 human colon carcinoma cells; test: Cytotoxicity (sulphorodamine B) on HCT-116 tumor cells; details: HCT-116 cells, 24 h treatment, then 48 h in drug-free medium, read-out: IC50 ± SD, HCT-116
Method: as §1, with “200 μl/well of medium culture RPMI 1640 containing 10% FCS were added and the plates were incubated at 37° C. for other 48 h.” left out, “For the tumor cells in adhesion (NCI-H460 and HCT-116), the procedure was as above mentioned, except that the at the end of the treatment, the plates were washed by remotion of the surnatant and addition of PBS 3 times and not by centrifugation.” left out
as §2

[3] = tested on: NCI-H460 non-small cell carcinoma cells; test: Cytotoxicity (sulphorodamine B) on NCI-H460 tumor cells; details: 24 h treatment, then 48 h in drug-free medium, read-out: IC50 ± SD, NCI-H460
Method: as §1, with “200 μl/well of medium culture RPMI 1640 containing 10% FCS were added and the plates were incubated at 37° C. for other 48 h.” left out, “For the tumor cells in adhesion (NCI-H460 and HCT-116), the procedure was as above mentioned, except that the at the end of the treatment, the plates were washed by remotion of the surnatant and addition of PBS 3 times and not by centrifugation.” left out
as §2

[4] = tested on: NB4, NCI-H460 and HCT-116 tumor cells; test: Cytotoxicity summarised over the three tumor cell lines; details: Homo sapiens; mean over NB4, NCI-H460, HCT-116; 24 h of treatment
Method: as §1, with “200 μl/well of medium culture RPMI 1640 containing 10% FCS were added and the plates were incubated at 37° C. for other 48 h.” left out, “For the tumor cells in adhesion (NCI-H460 and HCT-116), the procedure was as above mentioned, except that the at the end of the treatment, the plates were washed by remotion of the surnatant and addition of PBS 3 times and not by centrifugation.” left out
as §2

[5] = Homo sapiens, NB-4, 24 h treatment

Row | Compound | IC50 [1, 5] [µM] | IC50 ([2]; Homo sapiens) [µM] | IC50 ([3]; Homo sapiens) [µM] | IC50 [4] [µM] | IC50 ([1]; 24 h treatment) [µM] | IC50 [2] [µM] | IC50 [3] [µM]
1 | O=C(CCCCC(O)C(=O)Nc1ccccc1)NO (racemic) [Compound 5a, (±)-2-Hydroxyheptanedioic acid 7-hydroxyamide 1-phenylamide] | 3.7 ± 0.6 | 8.6 ± 0.2 | 13.7 ± 2.6 | – | – | – | –
2 | COC(CCCCC(=O)NO)C(=O)Nc1ccccc1 (racemic) [Compound 5b, (±)-2-Methoxyheptanedioic acid 7-hydroxyamide 1-phenylamide] | 3.5 ± 0.4 | 5 ± 0.1 | 5.7 ± 0.5 | – | – | – | –
3 | C=CCOC(CCCCC(=O)NO)C(=O)Nc1ccccc1 (racemic) [Compound 5c, (±)-2-Allyloxyheptanedioic acid 7-hydroxyamide 1-phenylamide] | 4.5 ± 0.4 | 4.3 ± 0.2 | 8.6 ± 0.3 | – | – | – | –
4 | C=C(C)COC(CCCCC(=O)NO)C(=O)Nc1ccccc1 (racemic) [Compound 5d, (±)-2-(2-Methylallyloxy)heptanedioic acid 7-hydroxyamide 1-phenylamide] | 9.6 ± 0.8 | 12.4 ± 0.2 | 14.7 ± 1.6 | – | – | – | –
5 | CCCOC(CCCCC(=O)NO)C(=O)Nc1ccccc1 (racemic) [Compound 5e, (±)-2-Propoxyheptanedioic acid 7-hydroxyamide 1-phenylamide] | 4.1 ± 0.3 | 8.5 ± 0.3 | 10.4 ± 1.2 | – | – | – | –
6 | O=C(CCCCC(OCc1ccccc1)C(=O)Nc1ccccc1)NO (racemic) [Compound 5f, (±)-2-Benzyloxyheptanedioic acid 7-hydroxyamide 1-phenylamide] | > 5 | 2.4 ± 0.06 | 5.5 ± 0.6 | – | – | – | –
7 | COc1ccc(COC(CCCCC(=O)NO)C(=O)Nc2ccccc2)cc1 (racemic) [Compound 5g, (±)-2-(4-Methoxybenzyloxy)heptanedioic acid 7-hydroxyamide 1-phenylamide] | 1 ± 0.1 | 1.3 ± 0.06 | 2 ± 0.3 | – | – | – | –
8 | O=C(CCCCCC(O)C(=O)Nc1ccccc1)NO (racemic) [Compound 9a, (±)-2-Hydroxyoctanedioic acid 8-hydroxyamide 1-phenylamide] | 0.5 ± 0.03 | 0.7 ± 0.02 | 1 ± 0.09 | < 1 | – | – | –
9 | COC(CCCCCC(=O)NO)C(=O)Nc1ccccc1 (racemic) [Compound 9b, (±)-2-Methoxyoctanedioic acid 8-hydroxyamide 1-phenylamide] | 0.5 ± 0.03 | 0.9 ± 0.04 | 1.2 ± 0.1 | < 1 | – | – | –
10 | C=CCOC(CCCCCC(=O)NO)C(=O)Nc1ccccc1 (racemic) [Compound 9c, (±)-2-Allyloxyoctanedioic acid 8-hydroxyamide 1-phenylamide] | 0.4 ± 0.02 | 1 ± 0.1 | 1.8 ± 0.1 | – | – | – | –
11 | COc1ccc(COC(CCCCCC(=O)NO)C(=O)Nc2ccccc2)cc1 (racemic) [Compound 9d, (±)-2-(4-Methoxybenzyloxy)octanedioic acid 8-hydroxyamide 1-phenylamide] | 0.1 ± 0.01 | 0.2 ± 0.006 | 0.5 ± 0.02 | < 1 | – | – | –
12 | O=C(CCCCCC(OCc1ccc(C(F)(F)F)cc1)C(=O)Nc1ccccc1)NO (racemic) [Compound 9e, (±)-2-(4-Trifluoromethylbenzyloxy)octanedioic acid 8-hydroxyamide 1-phenylamide] | 0.2 ± 0.002 | 0.4 ± 0.03 | 0.5 ± 0.06 | < 1 | – | – | –
13 | O=C(CCCCCC(OCc1ccc(Br)cc1)C(=O)Nc1ccccc1)NO (racemic) [Compound 9f, (±)-2-(4-Bromobenzyloxy)octanedioic acid 8-hydroxyamide 1-phenylamide] | 0.06 ± 0.004 | 0.3 ± 0.05 | 0.5 ± 0.04 | < 1 | – | – | –
14 | Cc1ccc(COC(CCCCCC(=O)NO)C(=O)Nc2ccccc2)cc1 (racemic) [Compound 9g, (±)-2-(4-Methylbenzyloxy)octanedioic acid 8-hydroxyamide 1-phenylamide] | 0.1 ± 0.01 | 0.3 ± 0.009 | 0.6 ± 0.01 | < 1 | – | – | –
15 | COc1cccc(COC(CCCCCC(=O)NO)C(=O)Nc2ccccc2)c1 (racemic) [Compound 9h, (±)-2-(3-Methoxybenzyloxy)octanedioic acid 8-hydroxyamide 1-phenylamide] | 0.2 ± 0.007 | 0.6 ± 0.1 | 0.6 ± 0.03 | < 1 | – | – | –
16 | COc1cccc(COC(CCCCCC(=O)NO)C(=O)N(Cc2cccc(OC)c2)c2ccccc2)c1 (racemic) [Compound 9i, (±)-2-(3-methoxybenzyloxy)octanedioic acid 8-hydroxyamide 1-[(3-methoxybenzyl)phenylamide]] | – | – | – | – | 4 ± 0.7 | 7.5 ± 0.4 | 7.4 ± 0.5
17 | O=C(CCCCCCC(O)C(=O)Nc1ccccc1)NO (racemic) [Compound 13a, (±)-2-Hydroxynonanedioic acid 9-hydroxyamide 1-phenylamide] | 0.9 ± 0.1 | 1.6 ± 0.05 | 3.6 ± 0.8 | – | – | – | –
18 | COC(CCCCCCC(=O)NO)C(=O)Nc1ccccc1 (racemic) [Compound 13b, (±)-2-Methoxynonanedioic acid 9-hydroxyamide 1-phenylamide] | 0.8 ± 0.03 | 1.1 ± 0.009 | 1.9 ± 0.1 | – | – | – | –
19 | C=CCOC(CCCCCCC(=O)NO)C(=O)Nc1ccccc1 (racemic) [Compound 13c, (±)-2-Allyloxynonanedioic acid 9-hydroxyamide 1-phenylamide] | 0.6 ± 0.06 | 1 ± 0.05 | 1.5 ± 0.3 | – | – | – | –
20 | COc1cc2cc(c1)COc1ccccc1NC(=O)C(CCCCCC(=O)NO)OCC=C2 (racemic) [Compound 32, (±)-6-(19-Methoxy-11-oxo-3,13-dioxa-10-azatricyclo[15.3.1.04,9]henicosa-1(21),4(9),5,7,15,17,19-heptaen-12-yl)hexanoic acid hydroxyamide] | – | 0.4 ± 0.03 | 0.9 ± 0.08 | < 1 | – | – | –
21 | O=C(CCCCCC1OCCCCCCOc2ccncc2NC1=O)NO (racemic) [Compound 46, (±)-6-(14-Oxo-6,7,8,9,10,11,14,15-octahydro-13H-5,12-dioxa-2,15-diazabenzocyclotridecen-13-yl)hexanoic acid hydroxyamide] | – | 13 ± 1.7 | 20 | – | – | – | –
22 | CO[C@H](CCCCC(=O)NO)C(=O)Nc1ccccc1 [(R)-5b, 2-(R)-Methoxyheptanedioic acid 7-hydroxyamide 1-phenylamide] | 4 ± 0.6 | 7.8 ± 0.5 | 9.6 ± 0.5 | – | – | – | –
23 | CO[C@@H](CCCCC(=O)NO)C(=O)Nc1ccccc1 [(S)-5b, 2-(S)-Methoxyheptanedioic acid 7-hydroxyamide 1-phenylamide] | 3.5 ± 0.3 | 6.8 ± 0.3 | 7.8 ± 0.5 | – | – | – | –
24 | COc1ccc(CO[C@@H](CCCCCC(=O)NO)C(=O)Nc2ccccc2)cc1 [(S)-9d, 2-(S)-(4-Methoxybenzyloxy)octanedioic acid 8-hydroxyamide 1-phenylamide] | – | – | – | – | 0.1 ± 0.002 | 0.2 ± 0.007 | 0.4 ± 0.03
25 | O=C(CCCCC[C@@H]1NCCCCCCOc2ccccc2NC1=O)NO [(S)-42a, 6-(6-Oxo-5,6,7,8,9,10,11,12,13,14-decahydro-15-oxa-5,8-diazabenzocyclotridecen-7-(S)yl)hexanoic acid hydroxyamide hydrochloride] | – | 0.8 ± 0.07 | 1.1 ± 0.07 | – | – | – | –
